# Source: paper PMC10865860 (mBio, 2023)
# Tested on: SARS-CoV-2 Omicron subvariant XBB.1.16
# Set-up: species or system K18-hACE2 mice
# Details: mouse, in vivo
smiles,measurement,setting,value
COc1ccccc1C1CC1COC(=O)NC(CC(C)C)C(=O)NC(CC1CCNC1=O)C(O)S(=O)(=O)O (stereo not shown) [11d],body weight loss compared to vehicle,,reduced weight losses
same,lung edema average score,,< 0.5
same,"viral titers in nasal wash, nasal turbinate, and lungs compared to vehicle",,significantly lower
same,fatality by 14 days after virus infection,ip,20%
